Measurements as given in ChEMBL document CHEMBL5226325, “Optimization of a Screening Hit toward M2912, an Oral Tankyrase Inhibitor with Antitumor Activity in Colorectal Cancer Models” (J Med Chem, 2021).
pIC50: −log10 of the molar value. Active and inactive are the calls of the source. No cut-off for these calls is given here.

Assays:
HCT-15 = assay: Cytotoxicity against human HCT-15 cells assessed as reduction in cell growth at 0.01 to 10 uM incubated for 14 days by resazurin dye based assay; type: functional; conditions: dose 0.01-10 µM, time 14.0 day
[1] = molecular target: T1, Poly [ADP-ribose] polymerase 1 (Homo sapiens, UniProt P09874); assay: Inhibition of N-terminal GST-tagged human recombinant PARP1 (2 to 1014 residues) expressed in Sf9 insect cells by chemiluminescence assay
[2] = Half life in monkey; type: ADME, Macaca mulatta; conditions: rhesus monkey, in vivo
[3] = Toxicity in CD-1 nude mouse xenografted with human HT55 cells assessed as drug tolerance at 15 mg/kg, po administered twice daily via gavage for 20 days; type: organism-based; conditions: in vivo, 480 h, time 20 day
[4] = Hepatic blood flow in rat; type: ADME
[5] = Oral bioavailability in rat; type: ADME, organism-based; conditions: in vivo
COLO 320 = assay: Antitumor activity against human COLO 320 cells xenografted in CB17-SCID mouse assessed as tumor growth inhibition at 20 mg/kg, po, administered twice daily via gavage and measured twice weekly; type: functional, organism-based
[6] = molecular target: Poly [ADP-ribose] polymerase 2 (Homo sapiens, UniProt Q9UGN5); assay: Inhibition of N-terminal GST-tagged human recombinant PARP2 (2 to 583 residues) expressed in baculovirus infected Sf9 insect cells by chemiluminescence assay
[7] = molecular target: T1, Poly [ADP-ribose] polymerase 1; assay: Inhibition of PARP-1 (unknown origin) using biotinylated NAD and NAD as substrate assessed as inhibition of auto-PARsylation incubated for 150 mins by TR-FRET assay
[8] = Toxicity in mouse assessed as histopathological changes in gastrointestinal tract at 50 mg/kg, po administered twice daily via gavage; type: organism-based; conditions: in vivo
[9] = Hepatic blood flow in mouse; type: ADME, organism-based
[10] = molecular target: T2, Poly [ADP-ribose] polymerase tankyrase-2 (Homo sapiens, UniProt Q9H2K2); assay: Inhibition of TNKS2 (unknown origin) using biotinylated NAD as substrate assessed as inhibition of autoPARsylation activity incubated for 1 hr by ELISA
T2 sequence (Q9H2K2 whole entry): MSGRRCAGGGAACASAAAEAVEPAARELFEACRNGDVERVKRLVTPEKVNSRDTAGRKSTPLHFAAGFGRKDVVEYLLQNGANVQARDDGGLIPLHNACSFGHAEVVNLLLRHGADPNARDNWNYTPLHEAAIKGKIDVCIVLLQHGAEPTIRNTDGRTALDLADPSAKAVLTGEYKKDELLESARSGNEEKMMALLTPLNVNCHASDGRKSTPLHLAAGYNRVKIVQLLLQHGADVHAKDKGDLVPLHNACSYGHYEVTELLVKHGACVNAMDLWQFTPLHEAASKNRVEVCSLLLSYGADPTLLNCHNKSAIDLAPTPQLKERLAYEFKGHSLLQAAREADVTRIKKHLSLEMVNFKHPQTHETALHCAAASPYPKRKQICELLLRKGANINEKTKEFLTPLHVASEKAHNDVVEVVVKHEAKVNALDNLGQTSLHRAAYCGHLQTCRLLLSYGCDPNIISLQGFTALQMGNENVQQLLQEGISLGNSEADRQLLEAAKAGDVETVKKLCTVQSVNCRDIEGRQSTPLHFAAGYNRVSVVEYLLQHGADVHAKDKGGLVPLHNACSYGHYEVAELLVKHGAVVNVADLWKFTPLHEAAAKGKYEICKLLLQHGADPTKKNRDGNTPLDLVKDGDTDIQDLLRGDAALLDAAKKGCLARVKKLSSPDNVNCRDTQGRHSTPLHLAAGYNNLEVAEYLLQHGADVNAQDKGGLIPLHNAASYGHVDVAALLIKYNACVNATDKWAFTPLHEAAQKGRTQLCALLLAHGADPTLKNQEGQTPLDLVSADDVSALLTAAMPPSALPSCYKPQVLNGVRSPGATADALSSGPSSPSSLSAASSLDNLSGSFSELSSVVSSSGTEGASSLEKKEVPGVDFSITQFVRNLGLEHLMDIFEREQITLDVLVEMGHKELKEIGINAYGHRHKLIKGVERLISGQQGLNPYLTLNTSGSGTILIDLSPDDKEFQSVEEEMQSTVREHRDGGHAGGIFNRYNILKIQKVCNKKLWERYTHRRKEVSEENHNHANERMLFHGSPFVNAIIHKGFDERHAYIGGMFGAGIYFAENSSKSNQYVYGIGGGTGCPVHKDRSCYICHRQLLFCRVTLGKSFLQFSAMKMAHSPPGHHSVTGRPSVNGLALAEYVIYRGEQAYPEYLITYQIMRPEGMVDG

[11] = molecular target: Protein mono-ADP-ribosyltransferase PARP14 (Homo sapiens, UniProt Q460N5); assay: Inhibition of N-terminal GST/6xHis/TEV-tagged human recombinant PARP14 (1470 to 1801 residues) expressed in Sf9 insect cells by chemiluminescence assay
[12] = Half life in rat; type: ADME; conditions: in vivo
[13] = Unbound fraction in human plasma; type: ADME, cell-free
HT55 = assay: Antitumor activity against human HT55 cells xenografted in CD-1 nude mouse assessed as tumor growth inhibition at 20 mg/kg, po, administered twice daily via gavage and measured twice weekly; type: functional, organism-based
[14] = Volume of distribution at steady state in rat; type: ADME; conditions: in vivo, read-out: Vdss
SW480 = assay: Cytotoxicity against human SW480 cells assessed as reduction in cell growth at 0.01 to 10 uM incubated for 14 days by resazurin dye based assay; type: functional; conditions: dose 0.01-10 µM, time 14.0 day
[15] = In vivo inhibition of Wnt pathway in Hsd athymic nude mouse xenografted with human DLD1 cells assessed as increase in tankyrase protein level in tumor at 10 to 30 mg/kg, po administered as single dose and measured after 2 to 8 hrs; type: functional, organism-based; conditions: DLD-1, dose 10-30 mg/kg, time 2-8 hrs
[16] = molecular target: Sodium-dependent dopamine transporter (Homo sapiens, UniProt Q01959); assay: Inhibition of dopamine transporter (unknown origin); type: toxicity
[17] = Unbound fraction in monkey plasma; type: ADME, cell-free, Macaca mulatta; conditions: rhesus monkey
[18] = molecular target: Protein mono-ADP-ribosyltransferase PARP11 (Homo sapiens, UniProt Q9NR21); assay: Inhibition of N-terminal GST-tagged/C-terminal 6xHis-tagged human recombinant PARP11 (8 to 338 residues) expressed in Sf9 insect cells by chemiluminescence assay
SW-620 = assay: Cytotoxicity against human SW620 cells assessed as reduction in cell growth at 0.01 to 10 uM incubated for 14 days by resazurin dye based assay; type: functional; conditions: dose 0.01-10 µM, time 14.0 day
[19] = Volume of distribution at steady state in mouse; type: ADME, organism-based; conditions: in vivo, read-out: Vdss
[20] = Oral bioavailability in dog; type: ADME, organism-based, Canis lupus familiaris; conditions: in vivo
[21] = In vivo inhibition of Wnt pathway in Hsd athymic nude mouse xenografted with human DLD1 cells assessed as reduction in beta-catenin level in tumor at 10 to 30 mg/kg, po administered as single dose and measured after 8 hrs; type: functional, organism-based; conditions: DLD-1, dose 10-30 mg/kg
[22] = molecular target: Protein mono-ADP-ribosyltransferase PARP10 (Homo sapiens, UniProt Q53GL7); assay: Inhibition of human PARP10 by chemiluminescence assay
[23] = Unbound fraction in dog plasma; type: ADME, cell-free, Canis lupus familiaris
[24] = Half life in mouse; type: ADME, organism-based; conditions: in vivo
[25] = Volume of distribution at steady state in dog; type: ADME, Canis lupus familiaris; conditions: in vivo, read-out: Vdss

T1 sequence (P09874 whole entry, the tested form may be a part): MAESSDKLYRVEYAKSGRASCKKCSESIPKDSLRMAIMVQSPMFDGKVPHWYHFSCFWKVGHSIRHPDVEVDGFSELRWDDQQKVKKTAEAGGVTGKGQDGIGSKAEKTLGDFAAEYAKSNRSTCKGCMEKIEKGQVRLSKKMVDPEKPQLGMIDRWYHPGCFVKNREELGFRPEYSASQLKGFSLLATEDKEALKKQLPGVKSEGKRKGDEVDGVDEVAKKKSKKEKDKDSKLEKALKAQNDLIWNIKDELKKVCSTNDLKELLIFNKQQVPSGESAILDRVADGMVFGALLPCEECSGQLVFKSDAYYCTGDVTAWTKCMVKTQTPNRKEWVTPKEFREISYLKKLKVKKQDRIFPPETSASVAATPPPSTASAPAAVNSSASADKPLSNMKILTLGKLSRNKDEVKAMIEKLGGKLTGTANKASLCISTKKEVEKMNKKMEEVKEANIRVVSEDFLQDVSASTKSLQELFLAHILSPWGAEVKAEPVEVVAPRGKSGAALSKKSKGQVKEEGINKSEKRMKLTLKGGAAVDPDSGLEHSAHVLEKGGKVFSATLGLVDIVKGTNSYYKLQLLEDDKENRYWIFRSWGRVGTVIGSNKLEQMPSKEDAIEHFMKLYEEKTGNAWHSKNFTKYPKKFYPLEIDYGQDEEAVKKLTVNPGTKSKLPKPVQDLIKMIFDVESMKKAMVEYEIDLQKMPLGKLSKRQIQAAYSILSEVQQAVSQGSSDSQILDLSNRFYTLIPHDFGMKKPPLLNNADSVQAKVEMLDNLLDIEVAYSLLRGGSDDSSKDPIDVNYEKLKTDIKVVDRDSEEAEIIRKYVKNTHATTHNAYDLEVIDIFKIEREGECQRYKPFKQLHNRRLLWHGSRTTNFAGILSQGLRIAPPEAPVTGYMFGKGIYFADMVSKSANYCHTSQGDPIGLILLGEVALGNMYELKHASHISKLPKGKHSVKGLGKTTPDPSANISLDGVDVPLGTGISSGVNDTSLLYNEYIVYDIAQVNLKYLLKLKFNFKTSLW
Chain of Protein mono-ADP-ribosyltransferase PARP14 (Q460N5 whole entry, the tested form may be a part): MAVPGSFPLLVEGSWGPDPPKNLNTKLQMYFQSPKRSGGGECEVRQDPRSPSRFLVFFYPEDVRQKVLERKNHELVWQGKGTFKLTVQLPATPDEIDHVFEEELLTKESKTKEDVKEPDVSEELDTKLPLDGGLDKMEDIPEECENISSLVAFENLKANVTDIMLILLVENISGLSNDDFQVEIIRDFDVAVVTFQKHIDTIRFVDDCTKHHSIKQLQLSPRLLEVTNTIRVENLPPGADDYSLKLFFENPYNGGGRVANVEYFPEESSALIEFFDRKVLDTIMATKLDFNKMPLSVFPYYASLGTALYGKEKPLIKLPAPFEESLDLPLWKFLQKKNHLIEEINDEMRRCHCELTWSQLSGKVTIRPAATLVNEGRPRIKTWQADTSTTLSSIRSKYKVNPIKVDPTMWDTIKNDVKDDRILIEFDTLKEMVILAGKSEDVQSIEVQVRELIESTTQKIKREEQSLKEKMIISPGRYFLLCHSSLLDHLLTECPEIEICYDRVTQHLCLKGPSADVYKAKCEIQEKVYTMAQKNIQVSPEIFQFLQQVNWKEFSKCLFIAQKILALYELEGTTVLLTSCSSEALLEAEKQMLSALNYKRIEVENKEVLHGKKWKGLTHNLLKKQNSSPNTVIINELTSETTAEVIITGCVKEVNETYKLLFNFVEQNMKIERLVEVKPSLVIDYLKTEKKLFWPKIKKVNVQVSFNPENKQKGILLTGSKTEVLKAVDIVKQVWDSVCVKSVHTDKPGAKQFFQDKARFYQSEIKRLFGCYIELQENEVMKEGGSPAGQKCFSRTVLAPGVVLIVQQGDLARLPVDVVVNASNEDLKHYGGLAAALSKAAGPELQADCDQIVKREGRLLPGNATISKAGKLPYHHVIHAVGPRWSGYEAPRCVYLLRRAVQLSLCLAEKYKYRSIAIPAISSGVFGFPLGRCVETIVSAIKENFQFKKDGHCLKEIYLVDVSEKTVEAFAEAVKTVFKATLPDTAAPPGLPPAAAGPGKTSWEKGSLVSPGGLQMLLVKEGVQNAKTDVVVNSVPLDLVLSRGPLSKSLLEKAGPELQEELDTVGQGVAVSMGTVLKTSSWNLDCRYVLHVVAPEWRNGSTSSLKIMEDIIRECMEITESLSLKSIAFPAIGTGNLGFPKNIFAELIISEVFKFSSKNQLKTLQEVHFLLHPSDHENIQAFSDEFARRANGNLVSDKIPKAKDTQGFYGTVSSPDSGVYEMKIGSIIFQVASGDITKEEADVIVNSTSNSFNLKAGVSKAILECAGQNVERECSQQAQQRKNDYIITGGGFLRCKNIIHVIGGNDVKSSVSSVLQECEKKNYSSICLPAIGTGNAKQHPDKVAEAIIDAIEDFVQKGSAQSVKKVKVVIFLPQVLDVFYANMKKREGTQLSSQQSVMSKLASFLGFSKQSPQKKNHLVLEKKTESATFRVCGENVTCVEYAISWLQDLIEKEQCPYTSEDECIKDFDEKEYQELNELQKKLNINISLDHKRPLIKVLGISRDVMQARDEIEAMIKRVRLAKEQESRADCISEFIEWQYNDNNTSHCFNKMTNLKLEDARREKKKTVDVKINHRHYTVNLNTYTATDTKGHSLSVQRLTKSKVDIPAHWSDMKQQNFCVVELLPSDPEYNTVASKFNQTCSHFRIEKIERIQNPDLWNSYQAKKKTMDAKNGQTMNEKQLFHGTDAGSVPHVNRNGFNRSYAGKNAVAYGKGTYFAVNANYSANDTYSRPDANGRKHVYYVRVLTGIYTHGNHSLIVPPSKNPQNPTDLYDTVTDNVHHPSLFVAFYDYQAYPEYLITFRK
Chain of Protein mono-ADP-ribosyltransferase PARP10 (Q53GL7 whole entry): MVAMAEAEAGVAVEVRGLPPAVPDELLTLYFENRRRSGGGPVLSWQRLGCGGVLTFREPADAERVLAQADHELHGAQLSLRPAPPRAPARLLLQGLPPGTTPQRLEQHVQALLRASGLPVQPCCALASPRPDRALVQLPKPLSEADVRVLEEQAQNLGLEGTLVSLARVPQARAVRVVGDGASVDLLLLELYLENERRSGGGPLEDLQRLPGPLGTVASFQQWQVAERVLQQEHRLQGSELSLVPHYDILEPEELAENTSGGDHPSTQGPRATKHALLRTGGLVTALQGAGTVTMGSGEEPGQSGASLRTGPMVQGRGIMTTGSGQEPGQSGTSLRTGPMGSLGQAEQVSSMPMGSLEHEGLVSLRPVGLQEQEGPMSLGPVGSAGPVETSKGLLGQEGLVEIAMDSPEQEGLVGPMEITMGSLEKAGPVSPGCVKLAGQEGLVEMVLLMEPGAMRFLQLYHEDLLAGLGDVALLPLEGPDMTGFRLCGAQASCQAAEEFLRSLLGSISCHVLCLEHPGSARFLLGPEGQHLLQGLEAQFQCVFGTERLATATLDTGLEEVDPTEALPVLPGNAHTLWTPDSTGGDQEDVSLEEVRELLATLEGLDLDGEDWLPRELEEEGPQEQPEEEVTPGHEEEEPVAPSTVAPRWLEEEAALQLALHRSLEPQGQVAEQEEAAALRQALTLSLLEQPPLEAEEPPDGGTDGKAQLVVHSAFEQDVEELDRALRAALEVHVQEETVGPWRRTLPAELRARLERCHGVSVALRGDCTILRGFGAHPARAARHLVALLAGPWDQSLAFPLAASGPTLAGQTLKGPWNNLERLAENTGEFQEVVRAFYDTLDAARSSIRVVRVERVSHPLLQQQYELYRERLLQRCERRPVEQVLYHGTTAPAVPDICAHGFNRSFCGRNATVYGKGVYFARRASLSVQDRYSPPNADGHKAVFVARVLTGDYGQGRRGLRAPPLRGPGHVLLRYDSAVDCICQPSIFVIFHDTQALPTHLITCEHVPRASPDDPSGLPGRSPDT
Chain of Poly [ADP-ribose] polymerase 2 (Q9UGN5 whole entry, the tested form may be a part): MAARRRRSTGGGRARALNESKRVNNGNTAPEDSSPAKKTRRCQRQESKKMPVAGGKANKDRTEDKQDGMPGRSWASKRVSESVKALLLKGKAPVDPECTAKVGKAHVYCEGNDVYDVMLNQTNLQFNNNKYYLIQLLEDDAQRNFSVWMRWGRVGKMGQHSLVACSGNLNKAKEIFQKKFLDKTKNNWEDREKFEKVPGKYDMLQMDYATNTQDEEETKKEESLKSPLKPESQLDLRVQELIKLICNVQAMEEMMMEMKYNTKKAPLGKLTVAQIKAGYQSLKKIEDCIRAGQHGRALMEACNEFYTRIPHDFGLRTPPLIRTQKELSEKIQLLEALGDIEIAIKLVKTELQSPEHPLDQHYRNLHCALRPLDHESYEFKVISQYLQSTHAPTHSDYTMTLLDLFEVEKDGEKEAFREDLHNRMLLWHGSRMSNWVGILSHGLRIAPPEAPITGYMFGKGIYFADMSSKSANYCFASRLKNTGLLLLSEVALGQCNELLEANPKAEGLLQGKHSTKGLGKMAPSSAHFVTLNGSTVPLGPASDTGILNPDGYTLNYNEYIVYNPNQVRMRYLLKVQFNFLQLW
Chain of Sodium-dependent dopamine transporter (Q01959 whole entry): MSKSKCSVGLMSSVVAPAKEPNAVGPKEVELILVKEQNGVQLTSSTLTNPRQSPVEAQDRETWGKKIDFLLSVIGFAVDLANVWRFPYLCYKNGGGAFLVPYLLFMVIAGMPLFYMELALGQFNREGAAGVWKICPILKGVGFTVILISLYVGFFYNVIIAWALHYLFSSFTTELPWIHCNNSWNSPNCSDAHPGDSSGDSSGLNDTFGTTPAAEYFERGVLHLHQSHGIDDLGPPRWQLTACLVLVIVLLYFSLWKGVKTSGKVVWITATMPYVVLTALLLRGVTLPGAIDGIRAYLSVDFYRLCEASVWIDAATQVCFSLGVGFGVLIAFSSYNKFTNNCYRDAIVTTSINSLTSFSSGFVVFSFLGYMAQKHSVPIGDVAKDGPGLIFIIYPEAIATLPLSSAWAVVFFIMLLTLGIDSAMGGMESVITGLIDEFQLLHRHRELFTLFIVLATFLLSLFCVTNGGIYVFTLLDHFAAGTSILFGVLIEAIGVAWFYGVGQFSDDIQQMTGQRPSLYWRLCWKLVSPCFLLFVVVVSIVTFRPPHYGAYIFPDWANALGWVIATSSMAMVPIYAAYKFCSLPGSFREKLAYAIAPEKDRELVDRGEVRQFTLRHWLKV

pIC50 [1]: 6.85
half-life [2]: 60.6 min
QH [4]: 56%
bioavailability [5]: 41%
pIC50 [6]: 6.70
pIC50 [7]: 6.03
QH [9]: 50%
pIC50 [10]: 9.05
pIC50 [11]: < 5.00
half-life [12]: 20.4 min
fraction unbound [13]: 0.096
Vd [14]: 0.91 L/kg
fraction unbound [17]: 0.21
pIC50 [18]: 7.17
Vd [19]: 2.43 L/kg
bioavailability [20]: 37%
pIC50 [22]: 5.54
fraction unbound [23]: 0.14
half-life [24]: 58.6 min
Vd [25]: 2.17 L/kg
SMILES: Cc1ccc2c(=O)[nH]c(-c3ccc(C(C)(C)O)cc3)cn12
Activity (HCT-15): inactive
Activity [3]: Non-Toxic
Activity (COLO 320): Active
Activity [8]: Toxic
Activity (HT55): Active
Activity (SW480): inactive
inhibition [15]: Active
pIC50 [16]: 4.72
Activity (SW-620): inactive
inhibition [21]: Active
